Measurements published in patent US5516525A, “Vitamin D derivative feed compositions and methods of use” (University of Georgia Research Foundation, Inc., priority 1994, dated 1996).
Several values for one entry are separate records, joined by “and”; a condition that tells them apart may be missing. Equal values may be shown once.

Experiments:
[1] = blood plasma total calcium and dialyzable phosphorus; details: in words, Exp 1
Protocol: (§1) Ten newly hatched birds were randomly placed in each section of the Petersime batteries until the birds were nine days old. The measurements described below were calculated on a pen basis; all statistical analyses were conducted on pen averages. Blood samples were taken by cardiac puncture with heparinized syringes from one randomly chosen bird from each pen on the ninth day before weighing the birds.

[2] = system: phosphorus deficient rickets; assay: phosphorus deficient rickets (Example 1); details: in words, Exp 1
Description: The birds were also scored for phosphorus deficient rickets at the same time they were scored for tibial dyschondroplasia. Chickens which had normal proliferating prehypertrophied zone and a lengthened metaphyseal primary spongiosa were classified as phosphorus deficient rickets.
Ri is an abbreviation for rickets incidence.

phytate phosphorus = assay: phytate (IP4, IP5, IP6) in feces, ferric chloride and HPLC procedures; type: in vivo, chicken (Petersen X Arbor Acre cockerels)
tibial dyschondroplasia = details: chickens, dietary level; cited from earlier work
[3] = 9-day body weight, feed consumption and gain:feed (Example 1); details: in words
Protocol: Newly hatched Petersen X Arbor Acre cockerels obtained from a commercial hatchery were used. Animals were housed in electrically heated Petersime battery brooders with wire-mesh floors located in a room in which the temperature was maintained at 22° C., fluorescent lights were on 24 hours each day in the room and the cages, and sunlight was present during the day from large windows. No attempt was made to limit the natural production of vitamin D3. Feed and water were available to the chickens at all times.
as §1
At nine days of age, pen body weights were obtained for all birds and their feed consumption was recorded. […] Briefly, using a three week old chicken as the reference animal, a score of zero indicates normal cartilage which is narrow with little irregularities. […] Deep irregularities are apparent. A score of three indicates a large mass of cartilage in the proximal end of the tibia. The birds were also scored for phosphorus deficient rickets at the same time they were scored for tibial dyschondroplasia. Chickens which had normal proliferating prehypertrophied zone and a lengthened metaphyseal primary spongiosa were classified as phosphorus deficient rickets. The left tibia was removed for bone ash determination on the fat-free bone.

bone ash = bone ash of left tibia (Example 1); details: in words
Description: The left tibia was removed for bone ash determination on the fat-free bone.

[4] = system: conversion of 25(OH)D3 to 1,25(OH)2 D3; details: chickens made acidotic; cited from earlier work

Structure (SMILES)	blood plasma phosphorus [1]	incidence of phosphorus-deficient rickets [2]	Feces excreted (phytate phosphorus; in vivo)	IP5 excretion, percent of total phytin phosphorus (phytate phosphorus; in vivo)	IP6 excretion, percent of total phytin phosphorus (phytate phosphorus; in vivo)	IP6 phytate phosphorus in feces by HPLC (phytate phosphorus; in vivo)	Phytate phosphorus retention, FeCl3 (phytate phosphorus; in vivo)	Phytate phosphorus retention, HPLC (phytate phosphorus; in vivo)	Phytin phosphorus retained (100 - total excreted) (phytate phosphorus; in vivo)	Total phytate phosphorus in feces by HPLC (phytate phosphorus; in vivo)	Total phytin phosphorus excreted (phytate phosphorus; in vivo)	amount of phosphorus in the feces (phytate phosphorus; in words, Exp 1)	tibial dyschondroplasia (effect of dietary factor) (tibial dyschondroplasia)	nine day weight ([3]; Example 1)	gain:feed ratio ([3]; Exp 1)	bone ash (bone ash)	conversion of 25(OH)D3 to 1,25(OH)2 D3 [4]
O.O=P([O-])([O-])O.[Na+].[Na+] [P, Na2 HPO4 H2 O]	increased	decreased	451 and 602 and 606	5.76% and 2.70% and 6.87%	46.92% and 37.06% and 46.00%	3.99 mg/g and 3.03 mg/g and 3.68 mg/g	47 and 68 and 51	47 and 60 and 46	46.7% and 59.5% and 45.9%	4.54 mg/g and 3.32 mg/g and 4.35 mg/g	53.4% and 40.6% and 54.4%	approximately the same	accentuate the development of the lesions	increased nine day weights	increased	increased	
Cl.N [ammonium chloride]																	reduced conversion
